Measured values: patent US11351206B2, “Probiotic sports nutrition compositions” (Ganeden Biotech, Inc., priority 2011, dated 2022)

Tested on: various bacterial pathogens
Test: Zone of inhibition assay, positive control
Format: cell-based
Details: 1 μl volume
From the text: The probiotic organisms described herein, e.g., Bacillus coagulans strain GBI-30 or GANEDEN BC-30™, ATCC Designation Number PTA-6086, promote digestive and oral health and support the immune system. The ability of Bacillus coagulans to inhibit various bacterial pathogens was quantitatively ascertained by use of an in vitro assay. This assay is part of a standardized bacterial pathogen screen (developed by the U.S. Food and Drug Administration (FDA)) and is commercially available on solid support disks (DIFCO® BACTROL® Antibiotic Disks). To perform the assay, potato-dextrose plates)(DIFCO® were initially prepared using standard procedures. The plates were then individually inoculated with the bacteria (approximately 1.5×10^6 CFU) to be tested so as to form a confluent bacterial bed.
Inhibition of microorganisms (e.g. gastrointestinal pathogens) by Bacillus coagulans was subsequently ascertained by placing approximately 1.8×10^6 CFU of Bacillus coagulans in 10 μl of broth or buffer, directly in the center of the potato-dextrose plate with one test locus being approximately 8 mm in diameter per plate. A minimum of three test loci were used for each assay. […] The plates were then incubated for approximately about 18 hr at 30° C., at which time the zones of inhibition were measured. […]

O=CCCCC=O [glutaraldehyde]
inhibition (about 18 hr at 30° C.): excellent “inhibition”
zone of inhibition diameter (average of three tests): approximately 16.2 mm
